These results are taken from US20180148418A1, “AMIDO-SUBSTITUTED CYCLOHEXANE DERIVATIVES” (Bayer Pharma Aktiengesellschaft, priority 2015, published 2018).

The test system of test [1] is wildtype Wnt signaling cascade. Nature of the test: HEK293 TOP assay (Super TopFlash luciferase reporter, Wnt-3a stimulated). The following applies: Homo sapiens, HEK293, 16 h, HEK293 TOP reporter cells, Wnt3a at EC50, 16 hours. The format is cell-based. In a few lines: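 Compound series (50 μM down to 15 nM, 3.16-fold) diluted from DMSO 50-fold into CAFTY buffer, pH 7.4, 2 mM Ca^2+, 0.01% BSA, applied to Wnt-3a-stimulated HEK293 TopFlash and FOP reporter lines in parallel. Cells seeded 10000/well 24 h before; luciferase signal measured.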
On the technique in general: In a reporter assay the amount or activity of a reporter protein is the signal.

The target in another test is T1, TNKS2 (Homo sapiens, UniProt Q9H2K2).
T1 construct: purchased BPS Bioscience, San Diego, USA 80572 (TNKS2 Histone Ribosylation Assay Kit)
T1 sequence (Q9H2K2 1-1166): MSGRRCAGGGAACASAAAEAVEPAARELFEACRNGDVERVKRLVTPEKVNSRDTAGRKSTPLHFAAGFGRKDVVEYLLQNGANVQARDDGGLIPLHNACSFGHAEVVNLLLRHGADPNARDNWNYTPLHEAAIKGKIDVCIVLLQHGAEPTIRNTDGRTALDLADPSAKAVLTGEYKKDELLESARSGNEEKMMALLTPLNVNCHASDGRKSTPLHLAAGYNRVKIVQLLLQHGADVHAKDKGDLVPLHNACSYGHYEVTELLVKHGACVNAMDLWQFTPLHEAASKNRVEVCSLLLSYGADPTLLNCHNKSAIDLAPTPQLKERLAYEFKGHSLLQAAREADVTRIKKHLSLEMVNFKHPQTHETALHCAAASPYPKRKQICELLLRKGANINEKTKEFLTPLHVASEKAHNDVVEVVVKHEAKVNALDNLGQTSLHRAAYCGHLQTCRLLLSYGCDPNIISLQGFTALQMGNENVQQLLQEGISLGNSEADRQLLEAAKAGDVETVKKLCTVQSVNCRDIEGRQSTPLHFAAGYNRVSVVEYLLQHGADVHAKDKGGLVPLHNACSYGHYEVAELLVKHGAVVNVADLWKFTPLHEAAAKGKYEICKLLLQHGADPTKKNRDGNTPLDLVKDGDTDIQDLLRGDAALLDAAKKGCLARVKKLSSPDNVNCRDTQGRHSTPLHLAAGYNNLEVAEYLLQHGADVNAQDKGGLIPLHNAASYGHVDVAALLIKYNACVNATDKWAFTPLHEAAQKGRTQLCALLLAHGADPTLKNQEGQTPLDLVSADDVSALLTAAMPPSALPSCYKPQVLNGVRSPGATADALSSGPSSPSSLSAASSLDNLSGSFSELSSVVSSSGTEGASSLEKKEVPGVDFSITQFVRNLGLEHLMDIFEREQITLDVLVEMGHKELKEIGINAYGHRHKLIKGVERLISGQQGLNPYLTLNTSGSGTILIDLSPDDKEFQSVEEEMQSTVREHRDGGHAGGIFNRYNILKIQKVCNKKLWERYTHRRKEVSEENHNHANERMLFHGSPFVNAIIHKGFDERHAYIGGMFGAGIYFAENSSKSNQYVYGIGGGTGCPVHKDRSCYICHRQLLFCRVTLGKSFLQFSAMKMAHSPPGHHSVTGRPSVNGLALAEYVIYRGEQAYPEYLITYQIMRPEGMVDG
Nature of the test: TNKS2 Assay B (auto-parsylation, [3H]-NAD+ SPA). Type of test: biochemical. The following applies: 6 nM TNKS2, auto-parsylation, over night at room temperature.

Structures can show the parent of a compound that is named as a salt.

Take `O=C(N[C@H]1CC[C@@]2(CCN(c3ccc(F)cc3)C2=O)CC1)c1cnn2cccnc12` [Example 209, N-[(trans)-2-(4-fluorophenyl)-1-oxo-2-azaspiro[4.5]dec-8-yl]pyrazolo[1,5-a]pyrimidine-3-carboxamide]: the IC50 – broadly, the concentration needed to halve the response being measured – came to 99 nM in test [1] and 240 nM at TNKS2.

In the case of `CNC(=O)c1nc[nH]c1C(=O)N[C@H]1CC[C@]2(CCN(c3ccc(F)cc3Cl)C2=O)CC1` [Example 182, N^5-[(cis)-2-(2-chloro-4-fluorophenyl)-1-oxo-2-azaspiro[4.5]dec-8-yl]-N^4-methyl-1H-imidazole-4,5-dicarboxamide], the IC50 in test [1] is 190 nM; at TNKS2, 1000 nM.

Turning to `Cc1nn2cccnc2c1C(=O)N[C@H]1CC[C@@]2(CCN(c3ccc(F)cc3Cl)C2=O)CC1` [Example 216, N-[(trans)-2-(2-chloro-4-fluorophenyl)-1-oxo-2-azaspiro[4.5]dec-8-yl]-2-methylpyrazolo[1,5-a]pyrimidine-3-carboxamide], the IC50 was found to be 71 nM in test [1] and 340 nM against TNKS2.

For `O=C(N[C@H]1CC[C@@]2(CCN(c3ccc(F)cc3Cl)C2=O)CC1)c1cnn2ccc(N3CCNCC3)nc12` [Example 226, N-[(trans)-2-(2-chloro-4-fluorophenyl)-1-oxo-2-azaspiro[4.5]dec-8-yl]-5-(piperazin-1-yl)pyrazolo[1,5-a]pyrimidine-3-carboxamide hydrochloric acid salt], the results for the IC50 (in test [1]; against TNKS2) were 32 nM and 3.3 nM, respectively.

`O=C(N[C@H]1CC[C@@]2(CCN(c3ccccc3Cl)C2=O)CC1)c1cnn2cccnc12` [Example 256, N-[(trans)-2-(2-chlorophenyl)-1-oxo-2-azaspiro[4.5]dec-8-yl]pyrazolo[1,5-a]pyrimidine-3-carboxamide]: the IC50 in test [1] came to 2.3 nM; at TNKS2, 12 nM.

Regarding `O=C(N[C@H]1CC[C@@]2(CCN(c3ccccc3Cl)C2=O)CC1)c1cnc2cccnn12` [Example 271, N-[(trans)-2-(2-chlorophenyl)-1-oxo-2-azaspiro[4.5]dec-8-yl]imidazo[1,2-b]pyridazine-3-carboxamide], the IC50 in test [1] was 3.6 nM; against TNKS2, 5.9 nM.

With `O=C(N[C@H]1CC[C@@]2(CCN(c3ccc(F)cc3Cl)C2=O)CC1)c1cnn2cc(CCO)cnc12` [Example 214, N-[(trans)-2-(2-chloro-4-fluorophenyl)-1-oxo-2-azaspiro[4.5]dec-8-yl]-6-(2-hydroxyethyl)pyrazolo[1,5-a]pyrimidine-3-carboxamide], the results for the IC50 (in test [1]; on TNKS2) were 16 nM and 5.3 nM, respectively.

Consider `CNC(=O)c1[nH]cnc1C(=O)N[C@H]1CC[C@@](C)(C(=O)Nc2ccc(F)cc2Cl)CC1` [Example 181, N^4-{cis-4-[(2-chloro-4-fluorophenyl)carbamoyl]-4-methylcyclohexyl}-N^5-methyl-1H-imidazole-4,5-dicarboxamide], for which the values for the IC50 (in test [1]; on TNKS2) were 9600 nM and over 10000 nM, respectively.

Take `O=C(NCC(F)(F)F)c1nc[nH]c1C(=O)N[C@H]1CC[C@@]2(CCN(c3cccc(Cl)c3)C2=O)CC1` [Example 281, N^5-[(trans)-2-(3-chlorophenyl)-1-oxo-2-azaspiro[4.5]dec-8-yl]-N^4-(2,2,2-trifluoroethyl)-1H-imidazole-4,5-dicarboxamide]: the IC50 in test [1] was 43 nM; at TNKS2, 280 nM.

`COCCNC(=O)c1nc[nH]c1C(=O)N[C@H]1CC[C@@]2(CCN(c3cccc(Cl)c3)C2=O)CC1` [Example 282, N^5-[(trans)-2-(3-chlorophenyl)-1-oxo-2-azaspiro[4.5]dec-8-yl]-N^4-(2-methoxyethyl)-1H-imidazole-4,5-dicarboxamide]: the IC50 in test [1] worked out at 41 nM; on TNKS2, 160 nM.

On to `CN1CC2(CCN(C(=O)c3nc[nH]c3C(=O)N[C@H]3CC[C@@]4(CCN(c5ccc(F)cc5Cl)C4=O)CC3)C2)C1` [Example 184, N-[(trans)-2-(2-chloro-4-fluorophenyl)-1-oxo-2-azaspiro[4.5]dec-8-yl]-4-[(2-methyl-2,6-diazaspiro[3.4]oct-6-yl)carbonyl]-1H-imidazole-5-carboxamide], for which the IC50 in test [1] is 21 nM; against TNKS2 it was 6.2 nM.

Regarding `CNC(=O)c1nc[nH]c1C(=O)N[C@H]1CC[C@H](C(=O)N(C)c2ccccc2C)CC1` [Example 203, N^4-methyl-N^5-{trans-4-[methyl(2-methylphenyl)carbamoyl]cyclohexyl}-1H-imidazole-4,5-dicarboxamide], the IC50 in test [1] was 25000 nM; on TNKS2 it was 480 nM.

As to `CCNC(=O)c1nc[nH]c1C(=O)N[C@H]1CC[C@@]2(CCN(c3cccc(Cl)c3)C2=O)CC1` [Example 277, N^5-[(trans)-2-(3-chlorophenyl)-1-oxo-2-azaspiro[4.5]dec-8-yl]-N^4-ethyl-1H-imidazole-4,5-dicarboxamide], the IC50 turned out to be 40 nM in test [1] and 150 nM on TNKS2.

For `CNc1ccn2ncc(C(=O)N[C@H]3CC[C@@]4(CCN(c5ccc(F)cc5Cl)C4=O)CC3)c2n1` [Example 215, N-[(trans)-2-(2-chloro-4-fluorophenyl)-1-oxo-2-azaspiro[4.5]dec-8-yl]-5-(methylamino)pyrazolo[1,5-a]pyrimidine-3-carboxamide], the IC50 stood at 5.5 nM in test [1] and 2.2 nM at TNKS2.

As for `C[C@]1(C(=O)Nc2ccc(F)cc2Cl)CC[C@@H](NC(=O)c2cnn3cccnc23)CC1` [Example 180, N-{cis-4-[(2-chloro-4-fluorophenyl)carbamoyl]-4-methylcyclohexyl}pyrazolo[1,5-a]pyrimidine-3-carboxamide], the IC50 in test [1] was 7600 nM; against TNKS2, over 10000 nM.

For the compound `CN(C)C(=O)c1nc[nH]c1C(=O)N[C@H]1CC[C@H](C(=O)Nc2ccc(F)cc2Cl)CC1` [Example 16, N^5-{trans-4-[(2-chloro-4-fluorophenyl)carbamoyl]cyclohexyl}-N^4,N^4-dimethyl-1H-imidazole-4,5-dicarboxamide], the IC50 in test [1] was 1400 nM; against TNKS2, 1200 nM.

For the compound `Cc1cc(C)n2ncc(C(=O)N[C@H]3CC[C@@]4(CCN(c5ccccc5Cl)C4=O)CC3)c2n1` [Example 257, N-[(trans)-2-(2-chlorophenyl)-1-oxo-2-azaspiro[4.5]dec-8-yl]-5,7-dimethylpyrazolo[1,5-a]pyrimidine-3-carboxamide], the IC50 in test [1] turned out to be 1.4 nM; against TNKS2, 5.7 nM.

Take `COCCNC(=O)c1nc[nH]c1C(=O)N[C@H]1CC[C@@]2(CCN(c3ccccc3Cl)C2=O)CC1` [Example 259, N^5-[(trans)-2-(2-chlorophenyl)-1-oxo-2-azaspiro[4.5]dec-8-yl]-N^4-(2-methoxyethyl)-1H-imidazole-4,5-dicarboxamide]: the IC50 in test [1] came out at 8.6 nM; against TNKS2 it was 6.3 nM.

As for `Cc1cc(C)n2ncc(C(=O)N[C@H]3CC[C@@]4(CCN(c5ccc(F)cc5)C4=O)CC3)c2n1` [Example 211, N-[(trans)-2-(4-fluorophenyl)-1-oxo-2-azaspiro[4.5]dec-8-yl]-5,7-di methyl pyrazolo[1,5-a]pyrimidine-3-carboxamide], the IC50 in test [1] was found to be 270 nM; at TNKS2, 74 nM.

As for `CNC(=O)c1nc[nH]c1C(=O)N[C@H]1CC[C@H](C(=O)Nc2cccnc2Cl)CC1` [Example 10, N^5-{trans-4-[(2-chloropyridin-3-yl)carbamoyl]cyclohexyl}-N^4-methyl-1H-imidazole-4,5-dicarboxamide], the IC50 in test [1] stood at 90 nM; on TNKS2 it was 240 nM.

As for `O=C(N[C@H]1CC[C@@]2(CCN(c3cccc(Cl)c3)C2=O)CC1)c1[nH]cnc1C(=O)N1CC(F)C1` [Example 280, N-[(trans)-2-(3-chlorophenyl)-1-oxo-2-azaspiro[4.5]dec-8-yl]-4-[(3-fluoroazetidin-1-yl)carbonyl]-1H-imidazole-5-carboxamide], the results for the IC50 (in test [1]; against TNKS2) were 23 nM and 94 nM, respectively.
